Data taken from patent publication US10760110B2, “Antibiotic testing and screening system” (priority 2017, dated 2020).
≈ marks a conversion by molar mass, not a printed value. Where two headings read alike, the source gives them in different places.

Columns and labels:
[1] = test system: K. pneumoniae NVT1001 and its ΔompK35/36 and/or ΔramR mutants; experiment: Etest MIC, OmpK35/36 loss and AcrAB-TolC overexpression (ΔramR) strains (Table 6); format: cell-based, Klebsiella pneumoniae; conditions: Klebsiella pneumoniae
Summary of the method: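 Etest strips per kit instructions; off-scale intermediate readings rounded upward to the nearest two-fold concentration. Broth microdilution (CLSI) for ceftazidime, cefotaxime only. Breakpoints: CLSI 2017 generally, CLSI 2015 for cephalothin, EUCAST 2017 for moxifloxacin.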

[2] = test system: K. pneumoniae NVT1001 strains with carbapenemase plasmids; experiment: Etest MIC of β-lactams, OmpK35/36 loss, ΔramR and/or carbapenemase (Table 9); format: cell-based, Klebsiella pneumoniae; conditions: for MIC: Klebsiella pneumoniae
Summary of the method: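 Cloned resistance genes in pACYC177 or pACYC184 were electroporated into K. pneumoniae NVT1001. MICs were determined by Etest and rounded up to the next two-fold value. Ceftazidime and cefotaxime against the blaOXA-48 construct were also tested by CLSI broth microdilution, with breakpoints from CLSI 2017 (cephalothin CLSI 2015, moxifloxacin EUCAST 2017).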

[3] = test system: K. pneumoniae NVT1001 ΔramRΔompK35/36 mutant and its revertants; experiment: Etest MIC, ΔramRΔompK35/36 mutant and its revertants (Table 7); format: cell-based; conditions: Klebsiella pneumoniae

Structure (SMILES): CO[C@@]1(NC(=O)Cc2cccs2)C(=O)N2C(C(=O)O)=C(COC(N)=O)CS[C@@H]21 [Cefoxitin]
- MIC ([1]; WT, NVT1001, read-out: MIC): 4 µg/mL (≈ 9.36 µM)
- MIC ([1]; Δ35, ΔompK35 mutant): 4 µg/mL (≈ 9.36 µM)
- MIC ([1]; Δ35/36, ΔompK35/36 mutant): 128 µg/mL (≈ 299 µM)
- MIC ([1]; Δ36, ΔompK36 mutant): 16 µg/mL (≈ 37.4 µM)
- MIC ([1]; ΔramR mutant): 64 µg/mL (≈ 150 µM)
- MIC ([1]; ΔramRΔ35, ΔramRΔompK35 mutant): 64 µg/mL (≈ 150 µM)
- MIC ([1]; ΔramRΔ35/36, ΔramRΔompK35/36 mutant): > 256 µg/mL
- MIC ([1]; ΔramRΔ36, ΔramRΔompK36 mutant): > 256 µg/mL
- MIC ([2]; IMP-8 on pACYC177, WT (NVT1001), read-out: MIC): > 256 µg/mL
- MIC ([2]; IMP-8 on pACYC177, Δ35 (ΔompK35 mutant)): > 256 µg/mL
- MIC ([2]; IMP-8 on pACYC177, Δ35/36 (ΔompK35/36 mutant)): > 256 µg/mL
- MIC ([2]; IMP-8 on pACYC177, Δ36 (ΔompK36 mutant)): > 256 µg/mL
- MIC ([2]; IMP-8 on pACYC177, ΔramR mutant): > 256 µg/mL
- MIC ([2]; IMP-8 on pACYC177, ΔramRΔ35 (ΔramRΔompK35 mutant)): > 256 µg/mL
- MIC ([2]; IMP-8 on pACYC177, ΔramRΔ35/36 (ΔramRΔompK35/36 mutant)): > 256 µg/mL
- MIC ([2]; IMP-8 on pACYC177, ΔramRΔ36 (ΔramRΔompK36 mutant)): > 256 µg/mL
- MIC ([2]; KPC-2 on pACYC177, WT (NVT1001), read-out: MIC): 16 µg/mL
- MIC ([2]; KPC-2 on pACYC177, Δ35 (ΔompK35 mutant)): 32 µg/mL
- MIC ([2]; KPC-2 on pACYC177, Δ35/36 (ΔompK35/36 mutant)): > 256 µg/mL
- MIC ([2]; KPC-2 on pACYC177, Δ36 (ΔompK36 mutant)): 64 µg/mL
- MIC ([2]; KPC-2 on pACYC177, ΔramR mutant): 128 µg/mL
- MIC ([2]; KPC-2 on pACYC177, ΔramRΔ35 (ΔramRΔompK35 mutant)): 128 µg/mL
- MIC ([2]; KPC-2 on pACYC177, ΔramRΔ35/36 (ΔramRΔompK35/36 mutant)): > 256 µg/mL
- MIC ([2]; KPC-2 on pACYC177, ΔramRΔ36 (ΔramRΔompK36 mutant)): > 256 µg/mL
- MIC ([2]; KPC-3 on pACYC177, WT (NVT1001), read-out: MIC): 16 µg/mL
- MIC ([2]; KPC-3 on pACYC177, Δ35 (ΔompK35 mutant)): 32 µg/mL
- MIC ([2]; KPC-3 on pACYC177, Δ35/36 (ΔompK35/36 mutant)): > 256 µg/mL
- MIC ([2]; KPC-3 on pACYC177, Δ36 (ΔompK36 mutant)): 64 µg/mL
- MIC ([2]; KPC-3 on pACYC177, ΔramR mutant): 128 µg/mL
- MIC ([2]; KPC-3 on pACYC177, ΔramRΔ35 (ΔramRΔompK35 mutant)): 128 µg/mL
- MIC ([2]; KPC-3 on pACYC177, ΔramRΔ35/36 (ΔramRΔompK35/36 mutant)): > 256 µg/mL
- MIC ([2]; KPC-3 on pACYC177, ΔramRΔ36 (ΔramRΔompK36 mutant)): > 256 µg/mL
- MIC ([2]; NDM-1 on pACYC177, WT (NVT1001), read-out: MIC): > 256 µg/mL
- MIC ([2]; NDM-1 on pACYC177, Δ35 (ΔompK35 mutant)): > 256 µg/mL
- MIC ([2]; NDM-1 on pACYC177, Δ35/36 (ΔompK35/36 mutant)): > 256 µg/mL
- MIC ([2]; NDM-1 on pACYC177, Δ36 (ΔompK36 mutant)): > 256 µg/mL
- MIC ([2]; NDM-1 on pACYC177, ΔramR mutant): > 256 µg/mL
- MIC ([2]; NDM-1 on pACYC177, ΔramRΔ35 (ΔramRΔompK35 mutant)): > 256 µg/mL
- MIC ([2]; NDM-1 on pACYC177, ΔramRΔ35/36 (ΔramRΔompK35/36 mutant)): > 256 µg/mL
- MIC ([2]; NDM-1 on pACYC177, ΔramRΔ36 (ΔramRΔompK36 mutant)): > 256 µg/mL
- MIC ([2]; OXA-48 on pACYC177, WT (NVT1001), read-out: MIC): 4 µg/mL
- MIC ([2]; OXA-48 on pACYC177, Δ35 (ΔompK35 mutant)): 8 µg/mL
- MIC ([2]; OXA-48 on pACYC177, Δ35/36 (ΔompK35/36 mutant)): 128 µg/mL
- MIC ([2]; OXA-48 on pACYC177, Δ36 (ΔompK36 mutant)): 16 µg/mL
- MIC ([2]; OXA-48 on pACYC177, ΔramR mutant): 128 µg/mL
- MIC ([2]; OXA-48 on pACYC177, ΔramRΔ35 (ΔramRΔompK35 mutant)): 64 µg/mL
- MIC ([2]; OXA-48 on pACYC177, ΔramRΔ35/36 (ΔramRΔompK35/36 mutant)): > 256 µg/mL
- MIC ([2]; OXA-48 on pACYC177, ΔramRΔ36 (ΔramRΔompK36 mutant)): > 256 µg/mL
- MIC ([2]; VIM-1 on pACYC177, WT (NVT1001), read-out: MIC): > 256 µg/mL
- MIC ([2]; VIM-1 on pACYC177, Δ35 (ΔompK35 mutant)): > 256 µg/mL
- MIC ([2]; VIM-1 on pACYC177, Δ35/36 (ΔompK35/36 mutant)): > 256 µg/mL
- MIC ([2]; VIM-1 on pACYC177, Δ36 (ΔompK36 mutant)): > 256 µg/mL
- MIC ([2]; VIM-1 on pACYC177, ΔramR mutant): > 256 µg/mL
- MIC ([2]; VIM-1 on pACYC177, ΔramRΔ35 (ΔramRΔompK35 mutant)): > 256 µg/mL
- MIC ([2]; VIM-1 on pACYC177, ΔramRΔ35/36 (ΔramRΔompK35/36 mutant)): > 256 µg/mL
- MIC ([2]; VIM-1 on pACYC177, ΔramRΔ36 (ΔramRΔompK36 mutant)): > 256 µg/mL
- MIC ([2]; no supplemental plasmid, WT (NVT1001), read-out: MIC): 4 µg/mL
- MIC ([2]; no supplemental plasmid, Δ35 (ΔompK35 mutant)): 4 µg/mL
- MIC ([2]; no supplemental plasmid, Δ35/36 (ΔompK35/36 mutant)): 128 µg/mL
- MIC ([2]; no supplemental plasmid, Δ36 (ΔompK36 mutant)): 16 µg/mL
- MIC ([2]; no supplemental plasmid, ΔramR mutant): 64 µg/mL
- MIC ([2]; no supplemental plasmid, ΔramRΔ35 (ΔramRΔompK35 mutant)): 64 µg/mL
- MIC ([2]; no supplemental plasmid, ΔramRΔ35/36 (ΔramRΔompK35/36 mutant)): > 256 µg/mL
- MIC ([2]; no supplemental plasmid, ΔramRΔ36 (ΔramRΔompK36 mutant)): > 256 µg/mL
- resistance category ([2]; production of KPC-2 or KPC-3 alone): intermediate resistance
- MIC ([3]; ΔramRΔompK35/36::ompK35/36 revertant): 64 µg/mL
- MIC ([3]; ΔramRΔompK35/36::ompK35 revertant): > 256 µg/mL
- MIC ([3]; ΔramRΔompK35/36::ompK36 revertant): 64 µg/mL
- MIC ([3]; ΔramRΔompK35/36::ramR revertant): 64 µg/mL
- MIC ([3]; ΔramRΔompK35/36::ramR::ompK35/36 revertant): 4 µg/mL
- MIC ([3]; ΔramRΔompK35/36::ramR::ompK35 revertant): 16 µg/mL
- MIC ([3]; ΔramRΔompK35/36::ramR::ompK36 revertant): 8 µg/mL
- MIC ([3]; ΔramRΔompK35/36 mutant): > 256 µg/mL
